Experimental data reported in patent publication US8440814B2, “Derivatives of cyclodextrins, process for their preparation and their use in particular for solubilizing pharmacologically active substances” (Centre National de la Recherche Scientifique, priority 2003, dated 2013).
Values joined by “and” are separate entries in the source; they are usually repeats but may differ in a detail not shown here. Identical values can stand only once. Like-named read-outs stand apart in the source and are kept apart here. Each block holds one compound with its values, some of them ahead of it.

How the values were obtained:
[1] = as described in WO 95/19994; cited from earlier work
solubility in water = format: physicochemical
[2] = solubilization of Taxotere in water by inclusion in the cyclodextrin derivative; format: physicochemical; conditions: 50 mmol·L^−1 of compound in sterile water; for solubility of the Taxotere in a solution of the compound: stirred at 70° C., stays in solution at ambient temperature
From the text: These inclusion complexes can be prepared for example by adding to a solution or a suspension of the compound of the invention of formula (I) the pharmacologically active molecule in solution or in the pure state. The inclusion complex thus formed can be isolated by freeze-drying.
In the case of the compounds of the taxol family, such as Taxotere®, it is also possible to disperse this product in the pure state in a sterile solution of a compound according to the invention.
Starting with Taxotere in the pure state, 2.1 mg ([…]) of this product is dispersed in 1 mL of a solution containing 50 mmol·L^−1 of compound No. 1 in sterile water, then the suspension obtained is stirred at 70° C. until a clear solution is obtained which indicates the complexing of the Taxotere.

[3] = molecular target: concanavalin A (ConA) lectin (Canavalia ensiformis, UniProt P02866); format: binding
Experimental: The affinity of the thioureidocysteaminyl-cyclodextrins of the invention for specific membrane lectins was evaluated in vitro following the ELLA (Enzyme-Linked Lectin Assay) protocol. […] 2002, 102, pp. 555-578. This technique measures the capacity of a soluble mono- or oligosaccharide ligand to inhibit the association between a complementary lectin and another reference ligand fixed to a plastic support microplate.
The IC50 values are inversely proportional to the respective affinities.
The cells of a microtitre plate (Nunc-Immuno™ plates, MaxiSorp™) are loaded with 100 μL of a stock solution of yeast mannan (Sigma, 10 μg·mL^−1) in a saline phosphate buffer solution (PBS; pH 7.3 containing Ca^2+ 0.1 mM and Mn^2+ 0.1 mM) for one night at ambient temperature. The cells are washed (3×300 μL) with a buffer solution containing 0.05% (v/v) of Tween 20 (PBST). This washing protocol is repeated after each incubation during the test. A bovine serum albumin solution (BSA, 1%) in PBS (150 μL/cell) is then added to the cells followed by incubation for 1 hour at 37° C., then washed.
In order to determine the optimal lectin concentration for inhibition studies, 100 μL of a series of concanavalin A solutions marked with radish peroxidase of 10^−1 to 10^−5 mg·mL^−1 in PBS is added to the cells loaded with mannan, and treated as indicated above. After incubation at 37° C. for 1 hour, the plates are washed (PBST) and a solution (50 μL) of the diammonium salt of 2,2′-azinobis(3-ethylbenzothiazoline-6-sulphonic) acid (ABTS, 1 mg in 4 mL) in citrate buffer (0.2 M, pH 4.0 with 0.015% hydrogen peroxide) is added. The reaction is stopped after 20 minutes by adding 50 μL/cell of sulphuric acid 1 M and the absorbances are measured at 415 nm using an ELISA reader. The control cells contained citrate-phosphate buffer.
In a series of experiments ConA marked with radish peroxidase in an appropriate concentration as indicated above (60 μL/cell) is added to the solutions of each compound (60 μL/cell) in PBS sequentially diluted twice, in a Nunclon™ (Delta) microtitre plate which is incubated at 37° C. for 1 hour. The solutions (100 μL/cell) are then transferred onto a microtitre plate loaded with mannan and treated as indicated above, which is then incubated at 37° C. for 1 hour. The cells are washed (PBST) and the ABTS solution (50 μL/cell) is added. After 20 minutes, the reaction is stopped (sulphuric acid) and the absorbances are measured. The percentage of inhibition is calculated with the formula: […]

Compound: 6^I-S-α-maltosyl-6^I-thiocyclomaltoheptaose
solubility in water of Taxotere on adding the cyclodextrin derivative to its aqueous suspension [1]: up to 6.5 g/L

solubility in water (solubility in water): 500 g·L^−1 and 323 mmol·L^−1 | increase in the solubility of the Taxotere versus absence of cyclodextrin [2]: ~525 times | solubility of the Taxotere in a solution of the compound [2]: 2.1 g/L
Compound: Cl.Cl.Cl.Cl.Cl.Cl.Cl.NCCSC[C@H]1O[C@@H]2O[C@H]3[C@H](O)[C@@H](O)[C@@H](O[C@H]4[C@H](O)[C@@H](O)[C@@H](O[C@H]5[C@H](O)[C@@H](O)[C@@H](O[C@H]6[C@H](O)[C@@H](O)[C@@H](O[C@H]7[C@H](O)[C@@H](O)[C@@H](O[C@H]8[C@H](O)[C@@H](O)[C@@H](O[C@H]1[C@H](O)[C@H]2O)O[C@@H]8CSCCN)O[C@@H]7CSCCN)O[C@@H]6CSCCN)O[C@@H]5CSCCN)O[C@@H]4CSCCN)O[C@@H]3CSCCN [Compound No. 1, heptakis[6-S-(2-aminoethyl-6-thio)]cyclomalto heptaose heptahydrochloride]

Compound: OC[C@H]1O[C@H](NC(=S)NCCSC[C@H]2O[C@@H]3O[C@H]4[C@H](O)[C@@H](O)[C@@H](O[C@H]5[C@H](O)[C@@H](O)[C@@H](O[C@H]6[C@H](O)[C@@H](O)[C@@H](O[C@H]7[C@H](O)[C@@H](O)[C@@H](O[C@H]8[C@H](O)[C@@H](O)[C@@H](O[C@H]9[C@H](O)[C@@H](O)[C@@H](O[C@H]2[C@H](O)[C@H]3O)O[C@@H]9CSCCNC(=S)N[C@H]2O[C@H](CO)[C@@H](O)[C@H](O)[C@@H]2O)O[C@@H]8CSCCNC(=S)N[C@H]2O[C@H](CO)[C@@H](O)[C@H](O)[C@@H]2O)O[C@@H]7CSCCNC(=S)N[C@H]2O[C@H](CO)[C@@H](O)[C@H](O)[C@@H]2O)O[C@@H]6CSCCNC(=S)N[C@H]2O[C@H](CO)[C@@H](O)[C@H](O)[C@@H]2O)O[C@@H]5CSCCNC(=S)N[C@H]2O[C@H](CO)[C@@H](O)[C@H](O)[C@@H]2O)O[C@@H]4CSCCNC(=S)N[C@H]2O[C@H](CO)[C@@H](O)[C@H](O)[C@@H]2O)[C@@H](O)[C@@H](O)[C@@H]1O [Compound No. 2]
IC50 [3]: 175 µM | Relative affinity [3]: 4.9 | Relative molar affinity [3]: 0.7

Compound: OC[C@H]1O[C@H](OCC(CO[C@H]2O[C@H](CO)[C@@H](O)[C@H](O)[C@@H]2O)(CO[C@H]2O[C@H](CO)[C@@H](O)[C@H](O)[C@@H]2O)NC(=S)NCCSC[C@H]2O[C@@H]3O[C@H]4[C@H](O)[C@@H](O)[C@@H](O[C@H]5[C@H](O)[C@@H](O)[C@@H](O[C@H]6[C@H](O)[C@@H](O)[C@@H](O[C@H]7[C@H](O)[C@@H](O)[C@@H](O[C@H]8[C@H](O)[C@@H](O)[C@@H](O[C@H]9[C@H](O)[C@@H](O)[C@@H](O[C@H]2[C@H](O)[C@H]3O)O[C@@H]9CSCCNC(=S)NC(CO[C@H]2O[C@H](CO)[C@@H](O)[C@H](O)[C@@H]2O)(CO[C@H]2O[C@H](CO)[C@@H](O)[C@H](O)[C@@H]2O)CO[C@H]2O[C@H](CO)[C@@H](O)[C@H](O)[C@@H]2O)O[C@@H]8CSCCNC(=S)NC(CO[C@H]2O[C@H](CO)[C@@H](O)[C@H](O)[C@@H]2O)(CO[C@H]2O[C@H](CO)[C@@H](O)[C@H](O)[C@@H]2O)CO[C@H]2O[C@H](CO)[C@@H](O)[C@H](O)[C@@H]2O)O[C@@H]7CSCCNC(=S)NC(CO[C@H]2O[C@H](CO)[C@@H](O)[C@H](O)[C@@H]2O)(CO[C@H]2O[C@H](CO)[C@@H](O)[C@H](O)[C@@H]2O)CO[C@H]2O[C@H](CO)[C@@H](O)[C@H](O)[C@@H]2O)O[C@@H]6CSCCNC(=S)NC(CO[C@H]2O[C@H](CO)[C@@H](O)[C@H](O)[C@@H]2O)(CO[C@H]2O[C@H](CO)[C@@H](O)[C@H](O)[C@@H]2O)CO[C@H]2O[C@H](CO)[C@@H](O)[C@H](O)[C@@H]2O)O[C@@H]5CSCCNC(=S)NC(CO[C@H]2O[C@H](CO)[C@@H](O)[C@H](O)[C@@H]2O)(CO[C@H]2O[C@H](CO)[C@@H](O)[C@H](O)[C@@H]2O)CO[C@H]2O[C@H](CO)[C@@H](O)[C@H](O)[C@@H]2O)O[C@@H]4CSCCNC(=S)NC(CO[C@H]2O[C@H](CO)[C@@H](O)[C@H](O)[C@@H]2O)(CO[C@H]2O[C@H](CO)[C@@H](O)[C@H](O)[C@@H]2O)CO[C@H]2O[C@H](CO)[C@@H](O)[C@H](O)[C@@H]2O)[C@@H](O)[C@@H](O)[C@@H]1O [Compound No. 3, heptakis[6-S-[2-N′-tris(α-D-mannopyranosyloxymethyl)methylthioureido]ethyl-6-thio]cyclomaltoheptaose]
Relative affinity [3]: 41 | Relative molar affinity [3]: 2.0

Compound: COC1OC(CO)C(O)C(O)C1O [Me-α-D-Glcp, methyl-α-D-glucopyranoside, reference compound]
Relative affinity ([3]; relative to Me-α-D-Glcp = 1): 1 | Relative molar affinity ([3]; relative to Me-α-D-Glcp = 1): 1

Compound: OCC1OC(NC(=S)NCC2OC3OC4C(CNC(=S)NC5OC(CO)C(O)C(O)C5O)OC(OC5C(CNC(=S)NC6OC(CO)C(O)C(O)C6O)OC(OC6C(CNC(=S)NC7OC(CO)C(O)C(O)C7O)OC(OC7C(CNC(=S)NC8OC(CO)C(O)C(O)C8O)OC(OC8C(CNC(=S)NC9OC(CO)C(O)C(O)C9O)OC(OC9C(CNC(=S)NC%10OC(CO)C(O)C(O)C%10O)OC(OC2C(O)C3O)C(O)C9O)C(O)C8O)C(O)C7O)C(O)C6O)C(O)C5O)C(O)C4O)C(O)C(O)C1O [heptakis(6-deoxy-6-α-D-mannopyranosylthioureido)cyclomaltoheptaose, reference compound]
inhibition of the association between concanavalin A and yeast mannan ([3]; 175 µM): 8%

Compound: heptakis[6-S-[2-N′-[2,2,2-tris[5-(1-thio-α-D-mannopyranosyl)-2-oxapentyl]ethyl]thioureido]ethyl-6-thio]cyclomaltoheptaose [Compound No. 4]
Relative affinity [3]: 173 | Relative molar affinity [3]: 8.2 | increase in the solubility of the Taxotere versus absence of cyclodextrin [2]: ~500 times | solubility of the Taxotere in a solution of the compound [2]: 2.0 g/L

Compound: heptakis[6-S-[2-N′-[2,2-bis[5-(1-thio-α-D-mannopyranosyl)-2-oxapentyl]-2-[5-(1-thio-β-D-glucopyranosyl)-2-oxapentyl]ethyl]thioureido]ethylthio]cyclomaltoheptaose [Compound No. 7]
Relative affinity [3]: 67 | Relative molar affinity [3]: 4.8

Compound: heptakis[6-S-[2-N′-[2-[5-(1-thio-α-D-manno pyranosyl)-2-oxapentyl]-2,2-bis[5-(1-thio-β-D-glucopyranosyl)-2-oxapentyl]ethyl]thioureido]ethyl-6-thio]cyclomaltoheptaose [Compound No. 6]
Relative affinity [3]: 48 | Relative molar affinity [3]: 6.9 | recognition by ConA (in words) [3]: not recognized by ConA
